Experimental data: patent US20190062305A1, “PYRIDYL OR PYRAZINYL COMPOUNDS CARRYING A METHYL-BOUND ALPHA-AMINO ACID AMIDE GROUP” (ABBVIE DEUTSCHLAND GMBH & CO. KG, priority 2015, published 2019)
Counter-ions that a name gives are not always drawn.

Tests used:
5-HT2C receptor = target: T1, 5-HT2C receptor (Homo sapiens, UniProt P28335); assay: Human 5-HT2C functional assay (beta-arrestin2 recruitment, U2OS_HTR2C_β-Arrestin cells); format: cell-based; details: for EC50: beta-arrestin2 recruitment, U2OS_HTR2C_β-Arrestin cells, 1.5 h incubation, read-out: EC50 5-HT2C (potency in functional assay); for Emax: relative efficacy vs response to 10 μM 5-HT or maximal 5-HT effect (100%)
T1 construct: host or cells: U2OS
T1 sequence (P28335 33-458): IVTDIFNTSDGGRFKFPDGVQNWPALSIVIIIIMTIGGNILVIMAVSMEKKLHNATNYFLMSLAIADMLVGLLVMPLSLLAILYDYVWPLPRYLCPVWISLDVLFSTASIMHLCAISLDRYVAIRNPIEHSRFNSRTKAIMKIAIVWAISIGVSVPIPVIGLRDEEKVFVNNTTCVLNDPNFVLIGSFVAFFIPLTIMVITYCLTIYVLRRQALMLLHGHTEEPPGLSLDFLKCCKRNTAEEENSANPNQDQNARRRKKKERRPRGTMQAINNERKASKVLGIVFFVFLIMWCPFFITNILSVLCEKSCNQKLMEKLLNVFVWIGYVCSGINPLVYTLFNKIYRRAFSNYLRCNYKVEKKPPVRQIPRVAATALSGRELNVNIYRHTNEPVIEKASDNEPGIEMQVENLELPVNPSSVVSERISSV
T1 sequence (P32121 whole entry partner): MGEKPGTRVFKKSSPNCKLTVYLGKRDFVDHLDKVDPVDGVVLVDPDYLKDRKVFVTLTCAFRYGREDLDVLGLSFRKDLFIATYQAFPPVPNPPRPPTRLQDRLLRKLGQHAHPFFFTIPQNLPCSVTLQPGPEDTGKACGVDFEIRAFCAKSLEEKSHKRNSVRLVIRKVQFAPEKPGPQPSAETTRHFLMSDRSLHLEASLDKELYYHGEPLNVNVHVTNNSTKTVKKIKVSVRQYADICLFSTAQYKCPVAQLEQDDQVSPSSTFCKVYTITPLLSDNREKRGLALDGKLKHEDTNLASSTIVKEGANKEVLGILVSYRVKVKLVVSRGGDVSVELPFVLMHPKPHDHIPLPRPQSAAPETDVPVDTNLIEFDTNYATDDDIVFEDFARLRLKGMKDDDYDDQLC
Procedure: The functional activity of compounds of formula I was assayed by incubation with U2OS_HTR2C_β-Arrestin cells (DiscoverX, 93-0289C3) to induce beta-arrestin2 recruitment to the 5-HT2C receptor. The agonist-induced recruitment and proximity of the receptor and beta-arrestin2 leads to complementation and formation of active β-galactosidase. The enzyme complementation results in enzyme activity, which is measured following the termination of the agonist incubation using DiscoveRx's detection reagent, which contains a chemiluminescent substrate which produces a high intensity signal. Cells were plated and a medium-change to a 1% serum containing medium was performed 24h later. The next day, test compounds were added and incubated for 1.5 h before addition of detection reagent.
The response produced was measured and compared with the response produced by 10 [mu]M 5-HT or the maximal effect induced by 5-HT (defined as 100%) to which it was expressed as a percentage response (relative efficacy). Dose response curves were constructed using Graphpad Prism (Graph Software Inc.) or using in house adapted software using a 4 parameter dose response model with variable slope (fit=(Bottom+(Top-Bottom)/(1+10^∧((Log EC50−x)*HillSlope))res=(y-fit)). Results are compiled in the table below.

[1] = Metabolic stability in human liver microsomes, unbound intrinsic clearance (Cl int/fu mic); format: in vitro ADME; details: human, liver microsomes, pH 7.4, human liver microsomes 0.25 mg/mL, 0.5 μM compound, NADPH, read-out: Cl int, mic unb. (h) [l/h/kg] (unbound intrinsic clearance, human)
Procedure: Samples of the tested compounds (0.5 μM) were preincubated together with human liver microsomes (0.25 mg of microsomal protein/mL) in 0.05 M potassium phosphate buffer of pH 7.4 in microtiter plates at 37° C. for 5 minutes. The reaction was started by adding NADPH (1.0 mM). After 0, 5, 10, 15, 20 and 30 minutes, an aliquot was removed, the reaction was cooled and stopped by adding twice the amount of quench solution consisting of acetonitrile/methanol 1:1, and containing 0.2 μM carbutamide as internal standard. The samples were frozen until analyzed. The remaining concentration of undegraded test substance was determined by liquid chromatography-tandem mass spectrometry (LC-MS/MS). The half-life (t1/2) was determined from the gradient of the ratio of the signal of (test substance/internal standard)/unit time plot, allowing the calculation of the half-life of the test substance, assuming first order kinetics, from the decrease in the concentration of the compound with time. The microsomal clearance ([…]) was calculated as follows: […]=((ln(2)/t 1⁄2)/Microsomal Protein Concentration (mg/ml))*1000, leading to the unit of uL/min/mg. The scaled clearance (mClin_scaled) was calculated as […]_scaled=m CLint*(Microsomal Yield (mg/kg BW))/1000000*60, leading to the units L/h/kg. The Microsomal Yield is defined by the specifics of the used microsomes. Calculations were modified from references: Di, The Society for Biomolecular Screening, 2003, 453-462; Obach, D M D, 1999 vol 27. N 11, 1350-1359. A suspension of 0.25 mg/ml microsomal protein spiked with 0.5 μM of test compound was pipetted on one side of a HTDialysis device (HTDialysis LLC, 37 Ledgewood Drive, Gales Fery CT 06335) separated by a membrane with a MWcut off 12-14 K. 50 mM K-Phosphate buffer (pH 7.4) was added on the other side of the well. After incubation at 37° C. for 4 h while shaking at 150 rpm, aliquots of both sides were taken, quenched with MeOH/ACN 1:1 and 0.2 μM of internal standard and frozen until analysis by LCMSMS Cl int unbound=Cl int/fu mic

COc1nc(O[C@H]2CC[C@@H](C(F)(F)F)CC2)c(F)cc1CNC(=O)[C@@H]1CCCN1C [Example 19, (2S)—N-[[5-Fluoro-2-methoxy-6-[cis-4-(trifluoromethyl)cyclohexoxy]-3-pyridyl]methyl]-1-methyl-pyrrolidine-2-carboxamide; Fumaric Acid]
EC50 (5-HT2C receptor): < 20 nM
Emax (5-HT2C receptor): > 70%
CLint scaled at 0.5 μM [1]: 5 to 50 L/h/kg

COc1nc(O[C@H]2CC[C@@H](C(F)(F)F)CC2)c(F)cc1CNC(=O)[C@@H]1CCCN1 [Example 20, (2S)—N-[[5-Fluoro-2-methoxy-6-[cis-4-(trifluoromethyl)cyclohexoxy]-3-pyridyl]methyl]pyrrolidine-2-carboxamide; Fumaric Acid]
EC50 (5-HT2C receptor): < 20 nM
Emax (5-HT2C receptor): > 70%
CLint scaled at 0.5 μM [1]: 5 to 50 L/h/kg

COc1nc(OC2CCC(F)(F)C2)c(F)cc1CNC(=O)[C@@H]1CCCN1C (stereo partly drawn) [Example 23, (2S)—N-[[6-(3,3-Difluorocyclopentoxy)-5-fluoro-2-methoxy-3-pyridyl]methyl]-1-methyl-pyrrolidine-2-carboxamide; Fumaric Acid]
EC50 (5-HT2C receptor): < 20 nM
Emax (5-HT2C receptor): > 70%
CLint scaled at 0.5 μM [1]: < 5 L/h/kg

COc1nc(OC2CCC(F)(F)C2)c(F)cc1CNC(=O)[C@@H]1CCCN1 (stereo partly drawn) [Example 24, (2S)—N-[[6-(3,3-Difluorocyclopentoxy)-5-fluoro-2-methoxy-3-pyridyl]methyl]-pyrrolidine-2-carboxamide; Fumaric Acid]
EC50 (5-HT2C receptor): < 20 nM
Emax (5-HT2C receptor): > 70%
CLint scaled at 0.5 μM [1]: < 5 L/h/kg

COc1nc(OC[C@@H]2CCC(F)(F)C2)c(F)cc1CNC(=O)[C@H]1CCCN1C [Example 25, (2R)—N-[[6-[[(1R)-3,3-Difluorocyclopentyl]methoxy]-5-fluoro-2-methoxy-3-pyridyl]methyl]-1-methyl-pyrrolidine-2-carboxamide; Fumaric Acid]
EC50 (5-HT2C receptor): 20 to 200 nM
Emax (5-HT2C receptor): 50 to 70%
CLint scaled at 0.5 μM [1]: < 5 L/h/kg

COc1nc(O[C@H]2CCC(F)(F)C2)c(F)cc1CNC(=O)[C@@H]1CCCN1C [Example 26, (2S)—N-[[6-[(1S)-3,3-Difluorocyclopentoxy]-5-fluoro-2-methoxy-3-pyridyl]methyl]-1-methyl-pyrrolidine-2-carboxamide Hydrochloride]
EC50 (5-HT2C receptor): < 20 nM
Emax (5-HT2C receptor): > 70%
CLint scaled at 0.5 μM [1]: < 5 L/h/kg

COc1nc(O[C@@H]2CCC(F)(F)C2)c(F)cc1CNC(=O)[C@@H]1CCCN1C [Example 27, (2S)—N-[[6-[(1R)-3,3-Difluorocyclopentoxy]-5-fluoro-2-methoxy-3-pyridyl]methyl]-1-methyl-pyrrolidine-2-carboxamide Hydrochloride]
EC50 (5-HT2C receptor): < 20 nM
Emax (5-HT2C receptor): > 70%
CLint scaled at 0.5 μM [1]: < 5 L/h/kg

COc1nc(O[C@H]2CC[C@H](F)CC2)c(F)cc1CNC(=O)[C@@H]1CCCN1C [Example 28, (2S)—N-[[5-Fluoro-6-(trans-4-fluorocyclohexoxy)-2-methoxy-3-pyridyl]methyl]-1-methyl-pyrrolidine-2-carboxamide; Fumaric Acid]
EC50 (5-HT2C receptor): < 20 nM
Emax (5-HT2C receptor): > 70%
CLint scaled at 0.5 μM [1]: < 5 L/h/kg

COc1nc(O[C@H]2CC[C@@H](F)CC2)c(F)cc1CNC(=O)[C@@H]1CCCN1C [Example 29, (2S)—N-[[5-Fluoro-6-(cis-4-fluorocyclohexoxy)-2-methoxy-3-pyridyl]methyl]-1-methyl-pyrrolidine-2-carboxamide; Fumaric Acid]
EC50 (5-HT2C receptor): < 20 nM
Emax (5-HT2C receptor): > 70%
CLint scaled at 0.5 μM [1]: < 5 L/h/kg

COc1nc(O[C@H]2CC[C@@H](F)CC2)c(F)cc1CNC(=O)[C@@H]1CCCN1 [Example 30, (2S)—N-[[5-Fluoro-6-(cis-4-fluorocyclohexoxy)-2-methoxy-3-pyridyl]methyl]-pyrrolidine-2-carboxamide; Fumaric Acid]
EC50 (5-HT2C receptor): < 20 nM
Emax (5-HT2C receptor): > 70%
CLint scaled at 0.5 μM [1]: < 5 L/h/kg

COc1nc(O[C@H]2CC[C@H](F)CC2)c(F)cc1CNC(=O)[C@@H]1CCCN1 [Example 31, (2S)—N-[[5-Fluoro-6-(trans-4-fluorocyclohexoxy)-2-methoxy-3-pyridyl]methyl]-pyrrolidine-2-carboxamide; Fumaric Acid]
EC50 (5-HT2C receptor): < 20 nM
Emax (5-HT2C receptor): > 70%
CLint scaled at 0.5 μM [1]: < 5 L/h/kg

COc1nc(OC[C@H]2CCC(F)(F)C2)c(F)cc1CNC(=O)[C@@H]1CCCN1 [Example 32, (2S)—N-[[6-[[(1S)-3,3-Difluorocyclopentyl]methoxy]-5-fluoro-2-methoxy-3-pyridyl]methyl]pyrrolidine-2-carboxamide; Fumaric Acid]
EC50 (5-HT2C receptor): < 20 nM
Emax (5-HT2C receptor): 50 to 70%
CLint scaled at 0.5 μM [1]: < 5 L/h/kg

COc1nc(OC[C@@H]2CCC(F)(F)C2)c(F)cc1CNC(=O)[C@@H]1CCCN1 [Example 33, (2S)—N-[[6-[[(1R)-3,3-Difluorocyclopentyl]methoxy]-5-fluoro-2-methoxy-3-pyridyl]methyl]pyrrolidine-2-carboxamide; Fumaric Acid]
EC50 (5-HT2C receptor): < 20 nM
Emax (5-HT2C receptor): > 70%
CLint scaled at 0.5 μM [1]: < 5 L/h/kg

COc1nc(OC2CCC(F)(F)CC2)c(F)cc1CNC(=O)[C@@H]1C[C@@H](F)CN1 [Example 34, (2S,4R)—N-[[6-(4,4-Difluorocyclohexoxy)-5-fluoro-2-methoxy-3-pyridyl]methyl]-4-fluoro-pyrrolidine-2-carboxamide; Fumaric Acid]
EC50 (5-HT2C receptor): < 20 nM
Emax (5-HT2C receptor): > 70%
CLint scaled at 0.5 μM [1]: < 5 L/h/kg

COc1nc(OC2CCC(C(F)(F)F)CC2)c(F)cc1CNC(=O)[C@@H]1C[C@@H](F)CN1 (stereo partly drawn) [Example 35, (2S,4R)-4-Fluoro-N-[[5-fluoro-2-methoxy-6-[4-(trifluoromethyl)cyclohexoxy]-3-pyridyl]methyl]pyrrolidine-2-carboxamide; Fumaric Acid]
EC50 (5-HT2C receptor): < 20 nM
Emax (5-HT2C receptor): > 70%
CLint scaled at 0.5 μM [1]: < 5 L/h/kg

COc1nc(OC2CCC(C(F)(F)F)CC2)c(F)cc1CNC(=O)[C@@H]1CCN1 (stereo partly drawn) [Example 36, (2S)—N-[[5-Fluoro-2-methoxy-6-[4-(trifluoromethyl)cyclohexoxy]-3-pyridyl]-methyl]azetidine-2-carboxamide; Succinic Acid]
EC50 (5-HT2C receptor): < 20 nM
Emax (5-HT2C receptor): 50 to 70%
CLint scaled at 0.5 μM [1]: 5 to 50 L/h/kg

COc1nc(OC2CCC(F)(F)CC2)c(F)cc1CNC(=O)[C@@H]1CCN1 [Example 37, (2S)—N-[[6-(4,4-Difluorocyclohexoxy)-5-fluoro-2-methoxy-3-pyridyl]methyl]-azetidine-2-carboxamide; Succinic Acid]
EC50 (5-HT2C receptor): < 20 nM
Emax (5-HT2C receptor): 50 to 70%
CLint scaled at 0.5 μM [1]: < 5 L/h/kg

COc1nc(OC2CCC(C(F)(F)F)CC2)c(F)cc1CNC(=O)[C@@H]1CCN1C (stereo partly drawn) [Example 38, (2S)—N-[[5-Fluoro-2-methoxy-6-[4-(trifluoromethyl)cyclohexoxy]-3-pyridyl]methyl]-1-methyl-azetidine-2-carboxamide; Succinic Acid]
EC50 (5-HT2C receptor): 20 to 200 nM
Emax (5-HT2C receptor): 50 to 70%
CLint scaled at 0.5 μM [1]: 5 to 50 L/h/kg

COc1nc(OCCCC(F)(F)F)c(F)cc1CNC(=O)[C@@H]1CCCN1 [Example 40, (2S)—N-[[5-Fluoro-2-methoxy-6-(4,4,4-trifluorobutoxy)-3-pyridyl]methyl]-pyrrolidine-2-carboxamide; Succinic Acid]
EC50 (5-HT2C receptor): < 20 nM
Emax (5-HT2C receptor): > 70%
CLint scaled at 0.5 μM [1]: < 5 L/h/kg

COc1nc(OCC2CC(F)(F)C2)c(F)cc1CNC(=O)[C@@H]1CCCN1 [Example 42, (2S)—N-[[6-[(3,3-Difluorocyclobutyl)methoxy]-5-fluoro-2-methoxy-3-pyridyl]-methyl]pyrrolidine-2-carboxamide; Succinic Acid]
EC50 (5-HT2C receptor): < 20 nM
Emax (5-HT2C receptor): > 70%
CLint scaled at 0.5 μM [1]: < 5 L/h/kg
